Assays:
[1] = test system: TNF-α (TNF-alpha) production in Human PBMC (Peripheral Blood Mononuclear Cell); assay: Inhibition of TNF-α production in Human PBMC assay; format: cell-based; details: LPS-stimulated, n=9, read-out: Inhibition of TNF-α production in PBMCs pIC50 (converted)
Procedure: Test compounds are prepared as a ca. 10 mM stock solution in DMSO and a dilution series prepared in DMSO with 8 successive 3-fold dilutions, either directly from the 10 mM stock solution or from a more dilute solution in DMSO. The compound is added to assay plates using a Biomek Fx liquid handling robot.
PBMC cells (peripheral blood mononuclear cells) are prepared from heparinised human blood from normal volunteers by centrifugation on histopaque at ca. 1000 g for ca. 30 minutes. The cells are collected from the interface, washed by centrifugation (ca. 1300 g, ca. 10 minutes) and resuspended in assay buffer (RPMI 1640 containing 10% foetal calf serum, 1% L-glutamine and 1% penicillin/streptomycin) at 1×10^6 cells/ml. Ca. 50 μl (ca. 50 ul) cells are added to microtitre wells containing ca. 0.5 or ca/1.0 μl (ul) of an appropriately diluted compound solution. Ca. […] The supernatant is removed and the concentrations of TNF are determined by electrochemiluminescence assay using the IGEN technology or by ELISA (see below).
Ca. […] 50 μl (ul) of streptavidin/biotinylated anti-TNF-α antibody mix, ca. 25 μl ruthenium tagged anti-TNF-α monoclonal and ca. 100 μl PBS containing 0.1% bovine serum albumin are added to each well and the plates are sealed and shaken for ca. 2 hours before being read on an IGEN instrument. […]

[2] = molecular target: PDE4D (human recombinant) (Homo sapiens, UniProt Q08499); assay: PDE4D inhibition, IMAP Fluorescence Polarisation (FP) assay; format: biochemical; details: n = 2; accuracy ±about 0.5 log unit; read-out: PDE4D pIC50 (FP assay, mean value) (converted)
Excerpt: Human recombinant PDE4D (HSPDE4D3A) is disclosed in P. A. Baecker et al., “Isolation of a cDNA encoding a human rolipram-sensitive cyclic AMP phoshodiesterase (PDE IVD)”, Gene, 1994, 138, 253-256.
The ability of compounds to inhibit catalytic activity at PDE4B (human recombinant) or PDE4D (human recombinant) can optionally be determined by IMAP Fluorescence Polarisation (FP) assay (IMAP Explorer kit, available from Molecular Devices Corporation, Sunnydale, Calif., USA; Molecular Devices code: R8062) in a 384-well format.
The IMAP FP assay is able to measure PDE activity in an homogenous, non-radioactive assay format. […] Binding of Fl-AMP product to the beads (coated with the immobilised trivalent cations) slows the rotation of the bound Fl-AMP and leads to an increase in the fluorescence polarisation ratio of parallel to perpendicular light. […]
Test compounds (small volume, e.g. ca. 0.5 to 1 microliters (ul), preferably ca. 0.5 ul, of solution in DMSO) are preincubated at ambient temperature (room temperature, e.g. 19-23° C.) in black 384-well microtitre plates (supplier: NUNC, code 262260) with PDE enzyme in 10 mM Tris-HCl buffer pH 7.2, 10 mM MgCl2, 0.1% (w/v) bovine serum albumin, and 0.05% NaN3 for 10-30 minutes. […] The Fluorescence Polarisation (FP) ratio of parallel to perpendicular light is measured using an Analyst™ plate reader (from Molecular Devices Corporation). […]

Sequence of PDE4D (human recombinant) (Q08499 1-673 isoform Q08499-2): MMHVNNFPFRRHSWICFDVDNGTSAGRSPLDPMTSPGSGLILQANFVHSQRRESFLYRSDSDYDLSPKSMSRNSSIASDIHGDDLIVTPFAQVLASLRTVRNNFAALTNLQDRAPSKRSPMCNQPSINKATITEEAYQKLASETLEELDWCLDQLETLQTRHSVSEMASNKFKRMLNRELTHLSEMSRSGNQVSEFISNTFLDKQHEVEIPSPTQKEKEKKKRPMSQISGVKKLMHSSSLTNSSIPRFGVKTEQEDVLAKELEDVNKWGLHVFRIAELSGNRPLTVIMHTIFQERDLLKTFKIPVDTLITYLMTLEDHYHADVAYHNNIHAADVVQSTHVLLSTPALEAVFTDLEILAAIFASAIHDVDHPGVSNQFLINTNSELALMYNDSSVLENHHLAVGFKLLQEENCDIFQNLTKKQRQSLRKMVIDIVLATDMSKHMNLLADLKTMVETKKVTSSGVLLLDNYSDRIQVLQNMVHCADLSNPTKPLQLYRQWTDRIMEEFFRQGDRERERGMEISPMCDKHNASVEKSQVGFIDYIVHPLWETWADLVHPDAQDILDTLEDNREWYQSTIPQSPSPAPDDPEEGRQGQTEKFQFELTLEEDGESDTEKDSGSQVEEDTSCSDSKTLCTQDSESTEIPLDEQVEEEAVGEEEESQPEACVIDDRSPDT

CCn1ncc2c(NC3CCN(C(N)=O)CC3)c(C(=O)NCc3ccc(C)c(C)c3)cnc21 [compound of formula (I), 4-{[1-(aminocarbonyl)-4-piperidinyl]amino}-N-[(3,4-dimethylphenyl)methyl]-1-ethyl-1H-pyrazolo[3,4-b]pyridine-5-carboxamide] was tested, and the IC50 [1] was 1.82 nM and the IC50 [2] was 0.55 nM.
